A word on the IC50: it is the concentration that inhibits the measured activity by half.

Where a SMILES comes first, the peptide text is derived from it. Bridges are numbered along the chain shown (N, C = ends). [ ]: non-standard residue; d: D form. The star is where a group is joined. ξ: configuration not given here. Phe(4-COOH) = N[C@@H](Cc1ccc(C(=O)O)cc1)C(=O)O; Bip = N[C@@H](Cc1ccc(-c2ccccc2)cc1)C(=O)O; Phe(3-Me) = Cc1cccc(C[C@H](N)C(=O)O)c1; 4Pal = N[C@@H](Cc1ccncc1)C(=O)O; Cha = N[C@@H](CC1CCCCC1)C(=O)O; Cit = NC(=O)NCCC[C@H](N)C(=O)O; Carboxymethyl = O=C(O)C*; NMeA = CN[C@@H](C)C(=O)O; Orn = NCCC[C@H](N)C(=O)O; Aun = NCCCCCCCCCCC(=O)O; Dab = NCC[C@H](N)C(=O)O; Dap = NC[C@H](N)C(=O)O; AEEA = NCCOCCOCC(=O)O; ξV = CC(C)C(N)C(=O)O

T1 sequence (Q15116 25-288): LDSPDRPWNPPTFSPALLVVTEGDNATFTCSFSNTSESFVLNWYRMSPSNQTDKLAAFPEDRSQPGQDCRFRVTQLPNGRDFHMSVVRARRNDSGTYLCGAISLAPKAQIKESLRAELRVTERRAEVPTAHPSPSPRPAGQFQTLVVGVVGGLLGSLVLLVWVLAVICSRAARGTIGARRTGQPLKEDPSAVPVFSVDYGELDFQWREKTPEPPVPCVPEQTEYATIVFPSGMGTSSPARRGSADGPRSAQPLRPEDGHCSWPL

This test has as its target T1, PD-1/PD-L1 interaction (PE-labeled human PD-L1-Ig binding to Jurkat cell line over-expressing human PD-1) (Homo sapiens, UniProt Q15116).
T1 construct: expressed in transfected cells; host or cells: Jurkat
Description: Jurkat-PD-1 Cell Binding High-Content Screening Assay (CBA). The settings on record: Jurkat-hPD-1 cells, PE-labeled PD-L1-Ig 20 nM final; read-out: Jurkat HPD1 PDL1 IC50. The method in brief: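 Jurkat cells overexpressing human PD-1 (8×10^3/well, DMEM + 10% FCS) preincubated with compound 2 h at 37 °C, then PE-labelled human PD-L1-Ig (20 nM final) for 1 h. Cells fixed in paraformaldehyde with Hoechst 33342; bound PD-L1 quantified by high-content imaging.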
As for `CC(C)C[C@@H]1NC(=O)[C@H](Cc2c[nH]c3ccccc23)NC(=O)[C@H](CC(=O)O)NC(=O)[C@H](Cc2ccc(OCC(=O)O)cc2)NC(=O)[C@H](Cc2ccccc2)NC(=O)CSC[C@@H](C(=O)N[C@@H](CCCN)C(=O)NCCCCCCCCCCC(=O)O)NC(=O)[C@H](CCC(N)=O)NC(=O)[C@H](C(C)C)NC(=O)[C@H](CC(C)C)NC(=O)[C@H](CC(N)=O)NC(=O)[C@@H](CC(C)C)NC(=O)[C@H](C)N(C)C(=O)[C@H](C(C)C)NC(=O)[C@H](Cc2ccc(-c3ccccc3)cc2)NC1=O` [Example 1345] ({CH2CO}-FY(Carboxymethyl)DWL[Bip]V[NMeA][dL]NLVQC[Orn][Aun]-OH; thioether N-14), the IC50 came to 118 nM.
For the compound `CC(C)C[C@@H]1NC(=O)[C@H](Cc2c[nH]c3ccccc23)NC(=O)[C@H](CC(=O)O)NC(=O)[C@H](Cc2ccc(OCC(=O)O)cc2)NC(=O)[C@H](Cc2ccccc2)NC(=O)CSC[C@@H](C(=O)N[C@@H](CCN)C(=O)NCCCCCCCCCCC(=O)O)NC(=O)[C@H](CCC(N)=O)NC(=O)[C@H](C(C)C)NC(=O)[C@H](CC(C)C)NC(=O)[C@H](CC(N)=O)NC(=O)[C@@H](CC(C)C)NC(=O)[C@H](C)N(C)C(=O)[C@H](C(C)C)NC(=O)[C@H](Cc2ccc(-c3ccccc3)cc2)NC1=O` [Example 1346] ({CH2CO}-FY(Carboxymethyl)DWL[Bip]V[NMeA][dL]NLVQC[Dab][Aun]-OH; thioether N-14), the IC50 is 113 nM.
As for `CC(C)C[C@@H]1NC(=O)[C@H](Cc2c[nH]c3ccccc23)NC(=O)[C@H](CC(=O)O)NC(=O)[C@H](Cc2ccc(OCC(=O)O)cc2)NC(=O)[C@H](Cc2ccccc2)NC(=O)CSC[C@@H](C(=O)N[C@@H](CCCN)C(=O)NCCCCCCCCCCC(=O)O)NC(=O)[C@@H](CCC(N)=O)NC(=O)[C@H](C(C)C)NC(=O)[C@H](CC(C)C)NC(=O)[C@H](CC(N)=O)NC(=O)[C@@H](CC(C)C)NC(=O)[C@H](C)N(C)C(=O)[C@H](C(C)C)NC(=O)[C@H](Cc2ccc(-c3ccccc3)cc2)NC1=O` [Example 1347] ({CH2CO}-FY(Carboxymethyl)DWL[Bip]V[NMeA][dL]NLV[dQ]C[Orn][Aun]-OH; thioether N-14), the IC50 amounted to 301 nM.
In the case of `CC(C)C[C@@H]1NC(=O)[C@H](Cc2c[nH]c3ccccc23)NC(=O)[C@H](CC(=O)O)NC(=O)[C@H](Cc2ccc(C(=O)O)cc2)NC(=O)[C@H](Cc2ccc(OCC(=O)O)cc2)NC(=O)CSC[C@@H](C(=O)N[C@@H](CCCCN)C(=O)NCCCCCCCCCCC(=O)O)NC(=O)[C@H](CN)NC(=O)[C@H](C(C)C)NC(=O)[C@H](CC2CCCCC2)NC(=O)[C@H](CCN)NC(=O)[C@@H](CC(C)C)NC(=O)[C@H](C)N(C)C(=O)[C@H](C(C)C)NC(=O)[C@H](Cc2ccc(-c3ccccc3)cc2)NC1=O` [Example 1348] ({CH2CO}-Y(Carboxymethyl)[Phe(4-COOH)]DWL[Bip]V[NMeA][dL][Dab][Cha]V[Dap]CK[Aun]-OH; thioether N-14) it was 39.4 nM.
With `CC(C)C[C@@H]1NC(=O)[C@H](Cc2c[nH]c3ccccc23)NC(=O)[C@H](CC(=O)O)NC(=O)[C@H](Cc2ccncc2)NC(=O)[C@H](Cc2ccc(OCC(=O)O)cc2)NC(=O)CSC[C@@H](C(=O)N[C@@H](CCCCN)C(=O)NCCCCCCCCCCC(=O)O)NC(=O)[C@H](CN)NC(=O)[C@H](C(C)C)NC(=O)[C@H](CC2CCCCC2)NC(=O)[C@H](CCN)NC(=O)[C@@H](CC(C)C)NC(=O)[C@H](C)N(C)C(=O)[C@H](C(C)C)NC(=O)[C@H](Cc2ccc(-c3ccccc3)cc2)NC1=O` [Example 1349] ({CH2CO}-Y(Carboxymethyl)[4Pal]DWL[Bip]V[NMeA][dL][Dab][Cha]V[Dap]CK[Aun]-OH; thioether N-14), the IC50 was 15.8 nM.
The figure for `CC(C)C[C@@H]1NC(=O)[C@H](Cc2c[nH]c3ccccc23)NC(=O)[C@H](CC(=O)O)NC(=O)[C@H](Cc2ccc(OCC(=O)O)cc2)NC(=O)[C@H](Cc2ccccc2)NC(=O)CSC[C@@H](C(=O)N[C@@H](CCCCN)C(=O)NCCCCCCCCCCC(=O)O)NC(=O)[C@H](CN)NC(=O)[C@H](C(C)C)NC(=O)[C@H](CC(C)C)NC(=O)[C@H](CC(N)=O)NC(=O)[C@@H](CC(C)C)NC(=O)[C@H](C)N(C)C(=O)[C@H](C(C)C)NC(=O)[C@H](Cc2ccc(-c3ccccc3)cc2)NC1=O` [Example 1350] ({CH2CO}-FY(Carboxymethyl)DWL[Bip]V[NMeA][dL]NLV[Dap]CK[Aun]-OH; thioether N-14) is 119 nM; for `CC(C)C[C@H]1NC(=O)[C@H](C)N(C)C(=O)[C@H](CCCNC(N)=O)NC(=O)[C@H](Cc2ccc(-c3ccccc3)cc2)NC(=O)[C@H](C(C)C)NC(=O)[C@H](Cc2c[nH]c3ccccc23)NC(=O)[C@H](CC(=O)O)NC(=O)[C@H](Cc2ccc(OCC(=O)O)cc2)NC(=O)[C@H](CCCNC(=N)N)NC(=O)CSC[C@@H](C(=O)N[C@@H](CCN)C(=O)NCCCCCCCCCCC(=O)O)NC(=O)[C@H]([C@@H](C)O)NC(=O)[C@H](C(C)C)NC(=O)[C@H](CC2CCCCC2)NC(=O)[C@H](CCN)NC1=O` [Example 1353] ({CH2CO}-RY(Carboxymethyl)DWV[Bip][Cit][NMeA][dL][Dab][Cha]VTC[Dab][Aun]-OH; thioether N-14) it is 16.3 nM; for `CC(C)C[C@H]1NC(=O)[C@H](C)N(C)C(=O)[C@H](CCCNC(N)=O)NC(=O)[C@H](Cc2ccc(-c3ccccc3)cc2)NC(=O)[C@H](Cc2ccc(O)cc2)NC(=O)[C@H](Cc2c[nH]c3ccccc23)NC(=O)[C@H](CC(=O)O)NC(=O)[C@H](Cc2ccc(OCC(=O)O)cc2)NC(=O)[C@H](CCCNC(=N)N)NC(=O)CSC[C@@H](C(=O)N[C@@H](CCN)C(=O)NCCCCCCCCCCC(=O)O)NC(=O)[C@H]([C@@H](C)O)NC(=O)[C@H](C(C)C)NC(=O)[C@H](CC2CCCCC2)NC(=O)[C@H](CCN)NC1=O` [Example 1354] ({CH2CO}-RY(Carboxymethyl)DWY[Bip][Cit][NMeA][dL][Dab][Cha]VTC[Dab][Aun]-OH; thioether N-14) it is 42.2 nM.
As for `Cc1cccc(C[C@@H]2NC(=O)[C@H](CC(=O)O)NC(=O)[C@H](Cc3ccc(OCC(=O)O)cc3)NC(=O)[C@H](CCCNC(=N)N)NC(=O)CSC[C@@H](C(=O)N[C@@H](CCN)C(=O)NCCCCCCCCCCC(=O)O)NC(=O)[C@H]([C@@H](C)O)NC(=O)[C@H](C(C)C)NC(=O)[C@H](CC3CCCCC3)NC(=O)[C@H](CCN)NC(=O)[C@@H](CC(C)C)NC(=O)[C@H](C)N(C)C(=O)[C@H](CCCNC(N)=O)NC(=O)[C@H](Cc3ccc(-c4ccccc4)cc3)NC(=O)[C@H](Cc3ccc(O)cc3)NC2=O)c1` [Example 1355] ({CH2CO}-RY(Carboxymethyl)D[Phe(3-Me)]Y[Bip][Cit][NMeA][dL][Dab][Cha]VTC[Dab][Aun]-OH; thioether N-14), the half-maximal inhibitory concentration (IC50) was found to be 5.1 nM.
In the case of `Cc1cccc(C[C@@H]2NC(=O)[C@H](CC(=O)O)NC(=O)[C@H](Cc3ccc(OCC(=O)O)cc3)NC(=O)[C@H](CN)NC(=O)CSC[C@@H](C(=O)N[C@@H](CCN)C(=O)NCCCCCCCCCCC(=O)O)NC(=O)[C@H]([C@@H](C)O)NC(=O)[C@H](C(C)C)NC(=O)[C@H](CC3CCCCC3)NC(=O)[C@H](CCN)NC(=O)[C@@H](CC(C)C)NC(=O)[C@H](C)N(C)C(=O)[C@H](CCCNC(N)=O)NC(=O)[C@H](Cc3ccc(-c4ccccc4)cc3)NC(=O)C(C(C)C)NC2=O)c1` (stereo partly drawn) [Example 1356] ({CH2CO}-[Dap]Y(Carboxymethyl)D[Phe(3-Me)][ξV][Bip][Cit][NMeA][dL][Dab][Cha]VTC[Dab][Aun]-OH; thioether N-14) it was 14.6 nM.
As for `Cc1cccc(C[C@@H]2NC(=O)[C@H](CC(=O)O)NC(=O)[C@H](Cc3ccncc3)NC(=O)[C@H](Cc3ccc(OCC(=O)O)cc3)NC(=O)CSC[C@@H](C(=O)N[C@@H](CCN)C(=O)NCCOCCOCC(=O)NCCCCCCCCCCC(=O)O)NC(=O)[C@H]([C@@H](C)O)NC(=O)[C@H](C(C)C)NC(=O)[C@H](CC3CCCCC3)NC(=O)[C@H](CC(N)=O)NC(=O)[C@@H](CC(C)C)NC(=O)[C@H](C)N(C)C(=O)[C@H](Cc3ccc(OCC(=O)O)cc3)NC(=O)[C@H](Cc3ccc(-c4ccccc4)cc3)NC(=O)[C@H](Cc3ccc(OCC(=O)O)cc3)NC2=O)c1` [Example 1357] ({CH2CO}-Y(Carboxymethyl)[4Pal]D[Phe(3-Me)]Y(Carboxymethyl)[Bip]Y(Carboxymethyl)[NMeA][dL]N[Cha]VTC[Dab][AEEA][Aun]-OH; thioether N-14), the IC50 was determined as 20.5 nM.
The figure for `Cc1cccc(C[C@@H]2NC(=O)[C@H](CC(=O)O)NC(=O)[C@H](Cc3ccncc3)NC(=O)[C@H](Cc3ccc(OCC(=O)O)cc3)NC(=O)CSC[C@@H](C(=O)N[C@@H](CCCN)C(=O)NCCOCCOCC(=O)NCCCCCCCCCCC(=O)O)NC(=O)[C@H]([C@@H](C)O)NC(=O)[C@H](C(C)C)NC(=O)[C@H](CC3CCCCC3)NC(=O)[C@H](CC(N)=O)NC(=O)[C@@H](CC(C)C)NC(=O)[C@H](C)N(C)C(=O)[C@H](Cc3ccc(OCC(=O)O)cc3)NC(=O)[C@H](Cc3ccc(-c4ccccc4)cc3)NC(=O)[C@H](Cc3ccc(OCC(=O)O)cc3)NC2=O)c1` [Example 1358] ({CH2CO}-Y(Carboxymethyl)[4Pal]D[Phe(3-Me)]Y(Carboxymethyl)[Bip]Y(Carboxymethyl)[NMeA][dL]N[Cha]VTC[Orn][AEEA][Aun]-OH; thioether N-14) is 45.6 nM; for `Cc1cccc(C[C@@H]2NC(=O)[C@H](CC(=O)O)NC(=O)[C@H](Cc3ccncc3)NC(=O)[C@H](Cc3ccc(OCC(=O)O)cc3)NC(=O)CSC[C@@H](C(=O)N[C@@H](CCN)C(=O)NCCOCCOCC(=O)NCCCCCCCCCCC(=O)O)NC(=O)[C@H](CCCN)NC(=O)[C@H](C(C)C)NC(=O)[C@H](CC3CCCCC3)NC(=O)[C@H](CC(N)=O)NC(=O)[C@@H](CC(C)C)NC(=O)[C@H](C)N(C)C(=O)[C@H](Cc3ccc(OCC(=O)O)cc3)NC(=O)[C@H](Cc3ccc(-c4ccccc4)cc3)NC(=O)[C@H](Cc3ccc(OCC(=O)O)cc3)NC2=O)c1` [Example 1359] ({CH2CO}-Y(Carboxymethyl)[4Pal]D[Phe(3-Me)]Y(Carboxymethyl)[Bip]Y(Carboxymethyl)[NMeA][dL]N[Cha]V[Orn]C[Dab][AEEA][Aun]-OH; thioether N-14) it is 23.2 nM.
